From PubChem BioAssay (NCI)
“And” between values parts separate entries of the source, which are not always exact repeats. Equal values may be shown once.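 Grown in 96-well plates, cells were treated for 48 hours with each compound at five concentrations. Insufficient inhibition: endpoint recorded as highest concentration tested. Here, GI50 denotes the concentration required for 50% inhibition of growth. TGI is the concentration that stops growth completely.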

Test system: HOP-18 NSCLC
Assay: NCI-60 cell line screen, 48 h

Row | Compound | TGI | GI50
1 | NC(=S)N/N=C1\CCCC\C1=C/c1ccccc1 | > 100 µM | –
2 | Cc1ccc(C)c(N2C(=O)C(=O)C(c3nc4ccccc4o3)/C(=N/N)C2=O)c1 (configuration not stated) | > 100 µM | –
3 | CCCCCCCCCCCCCCCCCCC1=C(O)C(=O)C=C(OC)C1=O | > 100 µM | –
4 | CC(=O)OCCOCNC(=S)N/N=C/c1ccc([N+](=O)[O-])s1 | > 100 µM | –
5 | Cc1ccc(C)c(N2C(=O)C(=O)C(c3nc4ccccc4o3)/C(=N\NC(=O)c3ccccc3O)C2=O)c1 (configuration not stated) | > 100 µM | –
6 | c1ccc2c(c1)OCCOCCOc1ccccc1OCCO2 | > 100 µM | –
7 | Cc1ccc2[c](c1)[Sn]([c]1ccccc1)([c]1ccccc1)[c]1cc(C)ccc1N2C | > 100 µM | > 100 µM

Test system: HOP-62 NSCLC
Assay: NCI-60 cell line screen, 48 h

Row | Compound | TGI | GI50
8 | NC(=S)N/N=C1\CCCC\C1=C/c1ccccc1 | > 100 µM | –
9 | Cc1ccc(C)c(N2C(=O)C(=O)C(c3nc4ccccc4o3)/C(=N/N)C2=O)c1 (configuration not stated) | > 100 µM | –
10 | CCCCCCCCCCCCCCCCCCC1=C(O)C(=O)C=C(OC)C1=O | > 100 µM | –
11 | CC(=O)OCCOCNC(=S)N/N=C/c1ccc([N+](=O)[O-])s1 | > 100 µM | –
12 | Cc1ccc(C)c(N2C(=O)C(=O)C(c3nc4ccccc4o3)/C(=N\NC(=O)c3ccccc3O)C2=O)c1 (configuration not stated) | > 100 µM | –
13 | c1ccc2c(c1)OCCOCCOc1ccccc1OCCO2 | > 100 µM | –
14 | Cc1ccc2[c](c1)[Sn]([c]1ccccc1)([c]1ccccc1)[c]1cc(C)ccc1N2C | > 100 µM | > 100 µM

Test system: HOP-92 NSCLC
Assay: NCI-60 cell line screen, 48 h

Row | Compound | TGI | GI50
15 | NC(=S)N/N=C1\CCCC\C1=C/c1ccccc1 | > 100 µM | –
16 | Cc1ccc(C)c(N2C(=O)C(=O)C(c3nc4ccccc4o3)/C(=N/N)C2=O)c1 (configuration not stated) | > 100 µM | –
17 | CCCCCCCCCCCCCCCCCCC1=C(O)C(=O)C=C(OC)C1=O | > 100 µM | –
18 | CC(=O)OCCOCNC(=S)N/N=C/c1ccc([N+](=O)[O-])s1 | > 100 µM | –
19 | Cc1ccc(C)c(N2C(=O)C(=O)C(c3nc4ccccc4o3)/C(=N\NC(=O)c3ccccc3O)C2=O)c1 (configuration not stated) | > 100 µM | –
20 | c1ccc2c(c1)OCCOCCOc1ccccc1OCCO2 | > 100 µM | –
21 | Cc1ccc2[c](c1)[Sn]([c]1ccccc1)([c]1ccccc1)[c]1cc(C)ccc1N2C | > 100 µM | 5.58 µM and 15.7 µM

Test system: HT29 colon
Assay: NCI-60 cell line screen, 48 h

Row | Compound | TGI | GI50
22 | NC(=S)N/N=C1\CCCC\C1=C/c1ccccc1 | 50.3 µM | –
23 | Cc1ccc(C)c(N2C(=O)C(=O)C(c3nc4ccccc4o3)/C(=N/N)C2=O)c1 (configuration not stated) | > 100 µM | –
24 | CCCCCCCCCCCCCCCCCCC1=C(O)C(=O)C=C(OC)C1=O | > 100 µM | –
25 | CC(=O)OCCOCNC(=S)N/N=C/c1ccc([N+](=O)[O-])s1 | > 100 µM | –
26 | Cc1ccc(C)c(N2C(=O)C(=O)C(c3nc4ccccc4o3)/C(=N\NC(=O)c3ccccc3O)C2=O)c1 (configuration not stated) | > 100 µM | –
27 | c1ccc2c(c1)OCCOCCOc1ccccc1OCCO2 | > 100 µM | –
28 | Cc1ccc2[c](c1)[Sn]([c]1ccccc1)([c]1ccccc1)[c]1cc(C)ccc1N2C | > 100 µM | 37.3 µM

Test system: IGROV1 ovarian
Assay: NCI-60 cell line screen, 48 h

Row | Compound | TGI | GI50
29 | NC(=S)N/N=C1\CCCC\C1=C/c1ccccc1 | 71.5 µM | –
30 | Cc1ccc(C)c(N2C(=O)C(=O)C(c3nc4ccccc4o3)/C(=N/N)C2=O)c1 (configuration not stated) | > 100 µM | –
31 | CCCCCCCCCCCCCCCCCCC1=C(O)C(=O)C=C(OC)C1=O | > 100 µM | –
32 | CC(=O)OCCOCNC(=S)N/N=C/c1ccc([N+](=O)[O-])s1 | > 100 µM | –
33 | Cc1ccc(C)c(N2C(=O)C(=O)C(c3nc4ccccc4o3)/C(=N\NC(=O)c3ccccc3O)C2=O)c1 (configuration not stated) | > 100 µM | –
34 | c1ccc2c(c1)OCCOCCOc1ccccc1OCCO2 | > 100 µM | –
35 | Cc1ccc2[c](c1)[Sn]([c]1ccccc1)([c]1ccccc1)[c]1cc(C)ccc1N2C | > 100 µM | 58.7 µM

Test system: K-562 leukemia
Assay: NCI-60 cell line screen, 48 h

Row | Compound | TGI
36 | NC(=S)N/N=C1\CCCC\C1=C/c1ccccc1 | > 100 µM
37 | CC(=O)OCCOCNC(=S)N/N=C/c1ccc([N+](=O)[O-])s1 | > 100 µM
38 | Cc1ccc(C)c(N2C(=O)C(=O)C(c3nc4ccccc4o3)/C(=N\NC(=O)c3ccccc3O)C2=O)c1 (configuration not stated) | 85.6 µM
39 | c1ccc2c(c1)OCCOCCOc1ccccc1OCCO2 | > 100 µM

Test system: KM12 colon
Assay: NCI-60 cell line screen, 48 h

Row | Compound | TGI | GI50
40 | NC(=S)N/N=C1\CCCC\C1=C/c1ccccc1 | > 100 µM | –
41 | Cc1ccc(C)c(N2C(=O)C(=O)C(c3nc4ccccc4o3)/C(=N/N)C2=O)c1 (configuration not stated) | > 100 µM | –
42 | CCCCCCCCCCCCCCCCCCC1=C(O)C(=O)C=C(OC)C1=O | > 100 µM | –
43 | CC(=O)OCCOCNC(=S)N/N=C/c1ccc([N+](=O)[O-])s1 | > 100 µM | –
44 | c1ccc2c(c1)OCCOCCOc1ccccc1OCCO2 | > 100 µM | –
45 | Cc1ccc2[c](c1)[Sn]([c]1ccccc1)([c]1ccccc1)[c]1cc(C)ccc1N2C | > 100 µM | 29.8 µM

Test system: KM20L2 colon
Assay: NCI-60 cell line screen, 48 h

Row | Compound | TGI | GI50
46 | NC(=S)N/N=C1\CCCC\C1=C/c1ccccc1 | > 100 µM | –
47 | Cc1ccc(C)c(N2C(=O)C(=O)C(c3nc4ccccc4o3)/C(=N/N)C2=O)c1 (configuration not stated) | > 100 µM | –
48 | CCCCCCCCCCCCCCCCCCC1=C(O)C(=O)C=C(OC)C1=O | > 100 µM | –
49 | CC(=O)OCCOCNC(=S)N/N=C/c1ccc([N+](=O)[O-])s1 | > 100 µM | –
50 | Cc1ccc(C)c(N2C(=O)C(=O)C(c3nc4ccccc4o3)/C(=N\NC(=O)c3ccccc3O)C2=O)c1 (configuration not stated) | > 100 µM | –
51 | c1ccc2c(c1)OCCOCCOc1ccccc1OCCO2 | 87.7 µM | –
52 | Cc1ccc2[c](c1)[Sn]([c]1ccccc1)([c]1ccccc1)[c]1cc(C)ccc1N2C | > 100 µM | > 100 µM

Test system: LOX IMVI melanoma
Assay: NCI-60 cell line screen, 48 h

Row | Compound | TGI | GI50
53 | NC(=S)N/N=C1\CCCC\C1=C/c1ccccc1 | > 100 µM | –
54 | CC(=O)OCCOCNC(=S)N/N=C/c1ccc([N+](=O)[O-])s1 | > 100 µM | –
55 | Cc1ccc(C)c(N2C(=O)C(=O)C(c3nc4ccccc4o3)/C(=N\NC(=O)c3ccccc3O)C2=O)c1 (configuration not stated) | > 100 µM | –
56 | c1ccc2c(c1)OCCOCCOc1ccccc1OCCO2 | > 100 µM | –
57 | Cc1ccc2[c](c1)[Sn]([c]1ccccc1)([c]1ccccc1)[c]1cc(C)ccc1N2C | 29.6 µM | 13.2 µM

Test system: LXFL 529 NSCLC
Assay: NCI-60 cell line screen, 48 h

Row | Compound | TGI | GI50
58 | NC(=S)N/N=C1\CCCC\C1=C/c1ccccc1 | > 100 µM | –
59 | Cc1ccc(C)c(N2C(=O)C(=O)C(c3nc4ccccc4o3)/C(=N/N)C2=O)c1 (configuration not stated) | > 100 µM | –
60 | CCCCCCCCCCCCCCCCCCC1=C(O)C(=O)C=C(OC)C1=O | > 100 µM | –
61 | CC(=O)OCCOCNC(=S)N/N=C/c1ccc([N+](=O)[O-])s1 | > 100 µM | –
62 | Cc1ccc(C)c(N2C(=O)C(=O)C(c3nc4ccccc4o3)/C(=N\NC(=O)c3ccccc3O)C2=O)c1 (configuration not stated) | > 100 µM | –
63 | c1ccc2c(c1)OCCOCCOc1ccccc1OCCO2 | > 100 µM | –
64 | Cc1ccc2[c](c1)[Sn]([c]1ccccc1)([c]1ccccc1)[c]1cc(C)ccc1N2C | > 100 µM | 26.6 µM

Test system: M14 melanoma
Assay: NCI-60 cell line screen, 48 h

Row | Compound | TGI | GI50
65 | NC(=S)N/N=C1\CCCC\C1=C/c1ccccc1 | > 100 µM | –
66 | Cc1ccc(C)c(N2C(=O)C(=O)C(c3nc4ccccc4o3)/C(=N/N)C2=O)c1 (configuration not stated) | > 100 µM | –
67 | CCCCCCCCCCCCCCCCCCC1=C(O)C(=O)C=C(OC)C1=O | > 100 µM | –
68 | CC(=O)OCCOCNC(=S)N/N=C/c1ccc([N+](=O)[O-])s1 | > 100 µM | –
69 | Cc1ccc(C)c(N2C(=O)C(=O)C(c3nc4ccccc4o3)/C(=N\NC(=O)c3ccccc3O)C2=O)c1 (configuration not stated) | > 100 µM | –
70 | c1ccc2c(c1)OCCOCCOc1ccccc1OCCO2 | > 100 µM | –
71 | Cc1ccc2[c](c1)[Sn]([c]1ccccc1)([c]1ccccc1)[c]1cc(C)ccc1N2C | > 100 µM | 80.5 µM

Test system: M19-MEL melanoma
Assay: NCI-60 cell line screen, 48 h

Row | Compound | TGI | GI50
72 | NC(=S)N/N=C1\CCCC\C1=C/c1ccccc1 | > 100 µM | –
73 | Cc1ccc(C)c(N2C(=O)C(=O)C(c3nc4ccccc4o3)/C(=N/N)C2=O)c1 (configuration not stated) | > 100 µM | –
74 | CCCCCCCCCCCCCCCCCCC1=C(O)C(=O)C=C(OC)C1=O | > 100 µM | –
75 | CC(=O)OCCOCNC(=S)N/N=C/c1ccc([N+](=O)[O-])s1 | 34.1 µM | –
76 | Cc1ccc(C)c(N2C(=O)C(=O)C(c3nc4ccccc4o3)/C(=N\NC(=O)c3ccccc3O)C2=O)c1 (configuration not stated) | > 100 µM | –
77 | c1ccc2c(c1)OCCOCCOc1ccccc1OCCO2 | > 100 µM | –
78 | Cc1ccc2[c](c1)[Sn]([c]1ccccc1)([c]1ccccc1)[c]1cc(C)ccc1N2C | > 100 µM | 37.7 µM

Test system: MALME-3M melanoma
Assay: NCI-60 cell line screen, 48 h

Row | Compound | TGI | GI50
79 | NC(=S)N/N=C1\CCCC\C1=C/c1ccccc1 | > 100 µM | –
80 | Cc1ccc(C)c(N2C(=O)C(=O)C(c3nc4ccccc4o3)/C(=N/N)C2=O)c1 (configuration not stated) | > 100 µM | –
81 | CCCCCCCCCCCCCCCCCCC1=C(O)C(=O)C=C(OC)C1=O | > 100 µM | –
82 | CC(=O)OCCOCNC(=S)N/N=C/c1ccc([N+](=O)[O-])s1 | > 100 µM | –
83 | Cc1ccc(C)c(N2C(=O)C(=O)C(c3nc4ccccc4o3)/C(=N\NC(=O)c3ccccc3O)C2=O)c1 (configuration not stated) | > 100 µM | –
84 | c1ccc2c(c1)OCCOCCOc1ccccc1OCCO2 | 88.2 µM | –
85 | Cc1ccc2[c](c1)[Sn]([c]1ccccc1)([c]1ccccc1)[c]1cc(C)ccc1N2C | 90.7 µM | 31.8 µM

Test system: MOLT-4 leukemia
Assay: NCI-60 cell line screen, 48 h

Row | Compound | TGI
86 | NC(=S)N/N=C1\CCCC\C1=C/c1ccccc1 | 84.4 µM
87 | Cc1ccc(C)c(N2C(=O)C(=O)C(c3nc4ccccc4o3)/C(=N/N)C2=O)c1 (configuration not stated) | > 100 µM
88 | CCCCCCCCCCCCCCCCCCC1=C(O)C(=O)C=C(OC)C1=O | > 100 µM
89 | CC(=O)OCCOCNC(=S)N/N=C/c1ccc([N+](=O)[O-])s1 | > 100 µM
90 | Cc1ccc(C)c(N2C(=O)C(=O)C(c3nc4ccccc4o3)/C(=N\NC(=O)c3ccccc3O)C2=O)c1 (configuration not stated) | 52.6 µM
91 | c1ccc2c(c1)OCCOCCOc1ccccc1OCCO2 | > 100 µM

Test system: NCI-H226 lung
Assay: NCI-60 cell line screen, 48 h

Row | Compound | TGI
92 | Cc1ccc(C)c(N2C(=O)C(=O)C(c3nc4ccccc4o3)/C(=N/N)C2=O)c1 (configuration not stated) | > 100 µM
93 | CCCCCCCCCCCCCCCCCCC1=C(O)C(=O)C=C(OC)C1=O | > 100 µM
94 | CC(=O)OCCOCNC(=S)N/N=C/c1ccc([N+](=O)[O-])s1 | > 100 µM
95 | Cc1ccc(C)c(N2C(=O)C(=O)C(c3nc4ccccc4o3)/C(=N\NC(=O)c3ccccc3O)C2=O)c1 (configuration not stated) | 88.6 µM
